Source: patent US12144791B2, “KRAS agonists, pharmaceutical compositions, and uses in managing cancer” (Emory University, priority 2019, dated 2024)

Columns and labels:
human lung cancer cells = experiment: Screening of cytotoxicity by sulforhodamine B (SRB) assay; assay type: cell-based; conditions: among top 500 docked NCI small molecules
Text: A library containing small molecules from the National Cancer Institute (NCI) was employed to dock the GTP/GDP binding pocket of KRAS (PDB ID code: 4EPT) using the University of California, San Francisco (UCSF) DOCK 6.1 program suite. The small molecules were ranked according to their energy scores. Top 500 small molecules with predicted binding energies were selected for screening of cytotoxicity in human lung cancer cells by sulforhodamine B (SRB) assay. […] This lead compound was named KRAS agonist-533 (KRA-533) (FIG. 1A). To test whether KRA-533 regulates KRAS activity in lung cancer cells, human lung cancer cell lines with or without KRAS mutation were treated with KRA-533 (10 μM) for 48 h. […] Cell proliferation was also measured following treatment of cells for 48 h using MTS Cell Proliferation Colorimetric Assay Kit.

NSCLC cells = experiment: Colony formation assay; assay type: cell-based, human; conditions: 10 μM, 10 days; A549, H358, H157, Calu-1, H1972 vs H292, HCC827, H1975, H322
KRAS G13D = KRAS G13D (Homo sapiens, UniProt P01116, G13D); experiment: Thermal shift assay, purified KRAS G13D; assay type: binding; conditions: increasing concentrations
Protocol: Melting temperature (Tm) values of DMSO Ctrl and 15 μM of KRA-533 are shown.
(§1) To test whether KRA-533 directly binds to KRAS, a thermal shift assay was employed. […] To further assess whether KRA-533 activates KRAS directly, an in vitro cell-free GDP-GTP exchange experiment was carried out. Purified WT, G12C, G12D or G13D mutant KRAS proteins were incubated with purified GEF (RASGRP1) and GAP (RASA1) proteins in reaction buffer containing [γ-35S]-GTP in the absence or presence of increasing concentrations of KRA-533 at 25° C. for 60 min. KRAS activity was quantified by liquid scintillation counting. […] These findings indicate that KRA-533 not only activates WT KRAS but also has the capacity to further enhance KRAS activity of mutant KRAS.

KRAS K117A = biological target: T1, KRAS K117A (Homo sapiens, UniProt P01116, K117A); experiment: Thermal shift assay, purified KRAS K117A; assay type: binding
T1 construct: made in house
Protocol: Melting temperature (Tm) values of DMSO control and 15 μM KRA-533 are shown.
(§2) To further test this intracellularly, GFP-tagged WT, S17A, K117A and AA KRAS mutants were exogenously transfected into A549 cells. […] Activities of exogenous GFP-tagged WT and KRAS mutants were analyzed by Western blot using GFP antibody.

KRAS G12C = KRAS G12C (Homo sapiens, UniProt P01116, G12C); experiment: In vitro cell-free GDP-GTP exchange, KRAS G12C; assay type: biochemical; conditions: with GEF (RASGRP1) and GAP (RASA1), 25° C., 60 min
Protocol: (§3) GTPγS, purified GFP (RASGRP1, 180 nM) and GAP (RASA1, 180 nM) at 25° C. in the presence or absence of increasing concentrations of KRA-533.
as §1

KRAS G12D = KRAS G12D (Homo sapiens, UniProt P01116, G12D); experiment: In vitro cell-free GDP-GTP exchange, KRAS G12D; assay type: biochemical; conditions: with GEF (RASGRP1) and GAP (RASA1), 25° C., 60 min
Protocol: as §3, §1

GFP-tagged KRAS WT = biological target: T2, GFP-tagged KRAS WT (Homo sapiens, UniProt P01116); experiment: Raf-1-RBD pull-down of exogenous GFP-tagged KRAS WT in A549 cells; assay type: cell-based; conditions: 15 μM, 48 h
T2 construct: expressed in transfected cells; host or cells: A549
Protocol: The GFP-tagged exogenous KRAS-GTP (GFP-KRAS-GTP) was analyzed by Western blot using anti-GFP antibody.
as §2

[1] = tested on: G12D mutant KRAS-driven lung cancer; experiment: Genetically engineered LSL-KRASG12D mouse lung cancer model; assay type: in vivo
Text: Tumor numbers were counted under the microscope and tumor area was quantified using modular imaging software.
KRAS mutations are common genetic alterations in NSCLC and contribute to the resistance of lung cancer to conventional therapy. To test the potency of KRA-533 in mutant KRAS-driven lung cancer, lox-stop-lox (LSL)-KRASG12D mice were generated. By engineering LoxP DNA elements into the mouse genome that surround a synthetic ‘stop’ element (lox-stop-lox) inserted in front of mutant KRAS G12D, one can ‘turn-on’ mutant KRAS G12D with delivery of Cre recombinase. To control the expression of KRAS G12D, a LSL cassette was engineered into the first intron of the KRAS gene. The LSL cassette consists of transcriptional and translational stop elements flanked by LoxP sites that prevent the expression of the mutant allele until the stop elements are removed by the activity of Cre recombinase. To produce KRAS G12D mutant-driven lung cancer, alleles were induced in mouse lung using intranasal administration of a lentiviral Cre recombinase. Primary lung tumors developed around 12 weeks post-inoculation.
To assess whether KRA-533 has antitumor activity against G12D mutant KRAS-driven lung cancer in genetically engineered mouse models, KRA-533 (20 mg/kg/d) or vehicle control was administered i.p. starting at 10 weeks post AdeCre delivery. After treatment for 3 months, mice were euthanized for analysis of tumor burden. […] There were 3 deaths out of 8 mice in the control group versus 1 death out of 8 mice in the KRA-533 treatment group in four months before euthanization.

O=C(CBr)NCCCCc1ccc(C(=O)O)cc1 [KRA-533, 4-(4-(2-bromoacetamido)butyl)benzoic acid]
activity against human lung cancer cells (cytotoxicity, SRB assay) (human lung cancer cells): the most potent activity against human lung cancer cells
cell growth suppression (colony formation), KRAS mutant versus non-mutant cell lines (NSCLC cells): relatively more sensitive to KRA-533-mediated cell growth suppression than those without KRAS mutation
melting temperature (Tm) / binding, KRAS G13D (KRAS G13D): Dose dependent increases in melting temperature (Tm)
binding (thermal shift), KRAS K117A (KRAS K117A): failed to bind
KRAS activity (liquid scintillation), KRAS G12C (KRAS G12C): further enhanced the activities of active KRAS mutants
KRAS activity (liquid scintillation), KRAS G12D (KRAS G12D): further enhanced the activities of active KRAS mutants
activity of exogenous GFP-tagged WT KRAS (GFP-KRAS-GTP) (GFP-tagged KRAS WT): activated exogenous WT and S17A
deaths in four months before euthanization ([1]; 20 mg/kg/d i.p.): 1 death out of 8 mice
weight loss and normal tissue toxicity ([1]; 20 mg/kg/d i.p.): Slight weight loss but no significant normal tissue toxicity
tumor burden and multiplicity in the lung ([1]; 20 mg/kg/d i.p. from 10 weeks post AdeCre, four months): significant reduction of tumor burden and multiplicity in the lung
survival ([1]; 20 mg/kg/d i.p., compared with the control group): prolonged survival
